Source: PMC11889964, “Surveying helix 12 dynamics within constitutively active estrogen receptors using bipartite tetracysteine display” (The Journal of Biological Chemistry, 2025)
Where a chain is given by its changes, count along the chain named.

Legend:
Assay type in all cases: binding
ERα-LBD-ΔC4 [1] = target: T1, ERα-LBD-ΔC4 (Homo sapiens, UniProt P03372, A546C/C417S/C530A/E380C/H547C); test: Kinetic FlAsH-ER assay, FlAsH apparent rate constants (kon); details: 1 μM FlAsH-EDT2, 10 μM protein
T1 construct: pMCSG7 leader with TEV site (ENLYFQ/SNA); made in house; host or cells: E. coli BL21(DE3)
T1 sequence (P03372 with tags, fused parts or gaps E380C/C417S/C530A/A546C/H547C): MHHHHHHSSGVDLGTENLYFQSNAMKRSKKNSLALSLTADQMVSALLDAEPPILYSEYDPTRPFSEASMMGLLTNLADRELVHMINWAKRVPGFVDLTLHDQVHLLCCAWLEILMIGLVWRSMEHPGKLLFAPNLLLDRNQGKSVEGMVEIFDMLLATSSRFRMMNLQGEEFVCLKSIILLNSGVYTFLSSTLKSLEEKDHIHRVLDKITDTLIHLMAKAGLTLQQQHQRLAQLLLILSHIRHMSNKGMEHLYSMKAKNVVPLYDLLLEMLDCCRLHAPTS
Procedure: (§1) Kinetic experiments were performed on 384-well black, flat-bottom plates (catalog no.: 3575; Corning) with wells containing 25 μl total reaction volume. ERα-LBDs (10 μM) were incubated in 25 μl of binding buffer supplemented with 1 mM TCEP overnight at room temperature. […] Aliquots of EDT and FlAsH-EDT2 (1 μl) at respective final concentrations of 10 μM and 1 μM in binding buffer were then added to the samples. The change in fluorescence of each sample was then collected over 6 h with measurements taken at 1 min intervals. Data were collected using a SpectraMax M5e multimode plate reader, with an excitation wavelength of 508 nm and an emission wavelength of 530 nm. The data were processed using Kaleidagraph, version 4.5, and apparent rate constants (kon) were determined through curve fitting using the equation below: Fobs=Fmin+(Fmax−Fmin)(1−e^(−kT)) where Fobs is the observed fluorescence; Fmin is the minimum fluorescence value; Fmax represents the maximum fluorescence value; T is time in minutes; and k is the apparent rate constant.

ERα-LBD-ΔC4(D538G) [2] = target: T2, ERα-LBD-ΔC4(D538G) (Homo sapiens, UniProt P03372, A546C/C417S/C530A/D538G/E380C/H547C); test: as above; details: 1 μM FlAsH-EDT2, 10 μM protein
T2 construct: pMCSG7 leader with TEV site (ENLYFQ/SNA); made in house; host or cells: E. coli BL21(DE3)
T2 sequence (P03372 with tags, fused parts or gaps E380C/C417S/C530A/D538G/A546C/H547C): T1 sequence (P03372 with tags, fused parts or gaps E380C/C417S/C530A/A546C/H547C) with D265G
Procedure: as §1

ERα-LBD-ΔC4(Y537S) [3] = target: T3, ERα-LBD-ΔC4(Y537S) (Homo sapiens, UniProt P03372, A546C/C417S/C530A/E380C/H547C/Y537S); test: as above; details: 1 μM FlAsH-EDT2, 10 μM protein
T3 construct: pMCSG7 leader with TEV site (ENLYFQ/SNA); made in house; host or cells: E. coli BL21(DE3)
T3 sequence (P03372 with tags, fused parts or gaps E380C/C417S/C530A/Y537S/A546C/H547C): T1 sequence (P03372 with tags, fused parts or gaps E380C/C417S/C530A/A546C/H547C) with Y264S
Procedure: as §1

ERα-LBD-ΔC4 [4] = target: T1, ERα-LBD-ΔC4; test: Titration FlAsH-ER assay, FlAsH apparent equilibrium dissociation constants (Kapp)
Procedure: (§2) Titration experiments were performed on 384-well black, flat-bottom plates (catalog no.: 3575; Corning) with wells containing 25 μl total reaction volume^. ERα-LBDs (10 μM) were incubated in 25 μl of binding buffer supplemented with 1 mM TCEP overnight at room temperature. […] The solutions were then transferred to a fresh 384-well black, flat-bottom plate (catalog no.: 3575; Corning) and serially diluted with binding buffer. EDT and FlAsH-EDT2 (1 μl) in binding buffer were then immediately added at final concentrations of 10 μM and 1 μM, respectively. The reactions were then allowed to incubate in the dark for 6 h at room temperature. Fluorescence counts for each sample were then measured using a SpectraMax M5e multimode plate reader, with an excitation wavelength of 508 nm and an emission wavelength of 530 nm. Data were processed using SoftMax Pro software, version 6.4 and Kaleidagraph, version 4.5. The Kapp for each complex was defined by curve fitting using the equation below. Fobs=Fmin+(Fmax−Fmin/2L)(L+P+Kapp−((L+P+Kapp)^2−(4LP))^0.5) where Fobs is the observed fluorescence; P represents the total protein concentration; L is the total concentration of FlAsH-EDT2; Fmin is the minimum fluorescence value; Fmax represents the maximum fluorescence value; and Kapp is the apparent equilibrium dissociation constant.

ERα-LBD-ΔC4(D538G) [5] = target: T2, ERα-LBD-ΔC4(D538G); test: as above
Procedure: as §2

ERα-LBD-ΔC4(Y537S) [6] = target: T3, ERα-LBD-ΔC4(Y537S); test: as above
Procedure: as §2

ERα-LBD-ΔC4 [7] = target: T1, ERα-LBD-ΔC4; test: Endpoint fluorescence FlAsH-ER assay; details: unliganded ERα-LBD-ΔC4; 1 μM FlAsH-EDT2, 6 h
Procedure: Endpoint fluorescence experiments were performed in triplicate on 384-well black, flat-bottom plates (catalog no.: 3575; Corning) with wells containing 25 μl total reaction volume. The protein (10 μM) was incubated in FlAsH binding buffer (50 mM Tris base, 500 mM KCl, 2 mM DTT, 1 mM EDTA, 1 mM Na3VO4, 10% glycerol, pH 8.0) supplemented with 1 mM TCEP overnight at room temperature. […] Following incubation, 1 μl aliquots of EDT and FlAsH-EDT2 in binding buffer were added at final concentrations of 10 μM and 1 μM, respectively. The reaction mixtures were then allowed to incubate in the dark for 6 h at room temperature. Following incubation, the fluorescence of each sample was measured using a SpectraMax M5e multimode plate reader (Molecular Devices), with an excitation wavelength of 508 nm and an emission wavelength of 530 nm. Data were collected using SoftMax Pro software, version 6.4 (Molecular Devices) and processed using Kaleidagraph, version 4.5 (Synergy).

`O=C(O)c1ccccc1-c1c2ccc(=O)c([As]3SCCS3)c-2oc2c([As]3SCCS3)c(O)ccc12` [FlAsH] showed a kon (ERα-LBD-ΔC4 [1]; liganded receptor (+10 μM E2)) of 310 M⁻¹ s⁻¹, a kon (ERα-LBD-ΔC4 [1]; unliganded receptor (−E2)) of 447 M⁻¹ s⁻¹ and a kon (ERα-LBD-ΔC4(D538G) [2]; liganded receptor (+10 μM E2)) of 1170 M⁻¹ s⁻¹. For the same molecule, the kon (ERα-LBD-ΔC4(D538G) [2]; unliganded receptor (−E2)) was 838 M⁻¹ s⁻¹, the kon (ERα-LBD-ΔC4(Y537S) [3]; liganded receptor (+10 μM E2)) was 900 M⁻¹ s⁻¹ and the kon (ERα-LBD-ΔC4(Y537S) [3]; unliganded receptor (−E2)) was 491 M⁻¹ s⁻¹. The Kd (ERα-LBD-ΔC4 [4]; liganded receptor (+E2)) was 1220 ± 700 nM, the Kd (ERα-LBD-ΔC4 [4]; unliganded receptor (−E2)) was 940 ± 560 nM and the Kd (ERα-LBD-ΔC4(D538G) [5]; liganded receptor (+E2)) was 160 ± 60 nM. The Kd (ERα-LBD-ΔC4(D538G) [5]; unliganded receptor (−E2)) was 570 ± 370 nM, the Kd (ERα-LBD-ΔC4(Y537S) [6]; liganded receptor (+E2)) was 540 ± 330 nM and the Kd (ERα-LBD-ΔC4(Y537S) [6]; unliganded receptor (−E2)) was 900 ± 650 nM. For the same molecule, the “increase in endpoint fluorescence compared with ERα-LBD-ΔC0” value (ERα-LBD-ΔC4 [7]) was 10 fold.
